Test results taken from patent publication US20070093420A1, “Therapy procedure for drug delivery for trigeminal pain” (priority 2005, published 2007).

How the values were obtained:
Format in all cases: in vivo, Sprague-Dawley rats
[1] = test system: pain sensing nerve cells in the trigeminal ganglion; test: Nerve impulses of single pain sensing nerve cells in the trigeminal ganglion in response to noxious laser pulses to the face; conditions: rat, 10 nmoles applied to the nose
Procedure: Sprague-Dawley rats (Charles River Laboratories) were anesthetized with isofluorane and a platinum electrode was inserted transcranially into the trigeminal ganglion. Nerve impulses (action potential) were recorded from single pain sensing nerve cells in the trigeminal ganglion in response to application of noxious laser pulses to the face of the rats. After recording responses to several identical laser pulses, 10 nmoles of oxytocin was applied to the nose of the rats. Thereafter, identical laser pulses were once again applied and recorded.

[2] = test system: trigeminal nucleus caudalis wide dynamic range (WDR) neurons; test: Electrical stimulation-induced responses of trigeminal nucleus caudalis WDR neurons, single unit extracellular recording; conditions: rat
Procedure: Male Sprague-Dawley rats (Charles River Laboratories) were anesthetized with isoflurane and used in the following experiments. In the anesthetized rats, single unit, extracellular recordings were performed in trigeminal nucleus caudalis while stimulating the ipsilateral facial skin with constant-current bipolar electrical stimulation. Epoxylate-insulated, tungsten microelectrodes (10 MOhm) were used under stereotaxic coordinate control.
Shown are responses (action potentials per 30 stimuli) to repeated stimulation of a rat's face before oxytocin administration (pre-oxytocin). After administration with oxytocin at approximately 0.1 IU, responses were recorded every five minutes for 65 minutes. A second administration of oxytocin at the same dosage was administered at approximately 70 minutes after the first dose. The approximate site of the administration of the electrical stimulation is indicated by the black spot on a map of the rat's face (FIG. 3B).

[3] = test system: trigeminal nucleus caudalis wide dynamic range (WDR) neurons; test: Long-pulse laser-induced responses of trigeminal nucleus caudalis WDR neurons; conditions: rat, intranasal 0.025 ml of 0.05 mg/ml
Procedure: Male Sprague-Dawley rats (Charles River Laboratories) were anesthetized with isoflurane and used in the following experiments. In the anesthetized rats, single unit, extracellular recordings were performed in trigeminal nucleus caudalis while stimulating the ipsilateral facial skin with diode laser or constant-current bipolar electrical stimulation. Epoxylate-insulated, tungsten microelectrodes (10 MOhm) were used under stereotaxic coordinate control. […] Shown are responses (action potentials per second) to an 8 second-duration, 425 mA intensity laser stimulus to the site indicated by the black spot on a map of the rat's face (FIG. 4E).

[4] = test system: second-order neurons in the trigeminal nucleus caudalis; test: Electrical stimulus-induced windup of trigeminal nucleus caudalis neurons; conditions: rat, intranasal 0.025 ml of 0.05 mg/ml
Excerpt: Male Sprague-Dawley rats (Charles River Laboratories) were anesthetized with isoflurane and used in the following experiments. […] Needle electrodes were inserted subcutaneously at the site indicated in FIG. 5A by the black spot on the rat's head, and the skin was stimulated at 0.66 Hz, 2 msec duration, 3× C-fiber threshold for >25 times.

[5] = Withdrawal latencies after noxious laser thermal stimulation of ears or hindpaws after intranasal administration; conditions: rat, intranasal 10 nmoles/kg, tested from five minutes after final application
Excerpt: One way to test activity of an analgesic agent in a rat model is by treatment-induced changes in latencies (times) of withdrawal in response to noxious heating of the skin, typically using an ear, the face or a hindpaw. Thus, application of coherent or non-coherent (non-laser) radiant heat to the ear, the face or hindpaw will elicit rapid withdrawal movements. […] Transmucosal or transdermal administration of analgesic agents to the trigeminal nerve to reduce trigeminal nerve-associated pain can be tested for regional and/or systemic analgesia. The rostral external part of a rat's ear is innervated by a branch of the mandibular nerve, itself a branch of the trigeminal nerve, thus after treatment an increase in latency to withdrawal time would indicate regional analgesia. […]
Sprague-Dawley rats (Charles River Laboratories) were lightly anesthetized with urethane and placed with minimal restraint on a heating pad to maintain their body temperature at 37° C. […] Baseline withdrawal latencies were measured by delivering 4 separate stimuli with a resting period of approximately 15 minutes between each stimulus. […] As described above, testing sessions were videotaped and analyzed.

[6] = intranasal approximately 0.1 IU, first dose

CC[C@H](C)[C@@H]1NC(=O)[C@H](Cc2ccc(O)cc2)NC(=O)[C@@H](N)CSSC[C@@H](C(=O)N2CCC[C@H]2C(=O)N[C@@H](CC(C)C)C(=O)NCC(N)=O)NC(=O)[C@H](CC(N)=O)NC(=O)[C@H](CCC(N)=O)NC1=O [Oxytocin, Cys-Tyr-Ile-Gln-Asn-Cys-Pro-Leu-Gly]
neuronal response (average nerve impulses per laser pulse) post- vs pre-treatment (FIG. 2) [1]: significantly (p<0.05) reduced
responses (action potentials per 30 stimuli) after first administration (FIG. 3A) ([2]; intranasal approximately 0.1 IU, electrical stimulation of facial skin): significant reduction in responses
time after first administration at which significant reduction in responses began [2, 6]: 10 min
time post treatment until which reduction continued, when responses began to increase [2, 6]: 50 min
time to significant reduction in responses after second treatment ([2]; second dose approximately 0.1 IU at approximately 70 minutes after the first): ≤ 10 min

C[C@@H](O)[C@@H]1NC(=O)[C@H](CCCCN)NC(=O)[C@@H](Cc2c[nH]c3ccccc23)NC(=O)[C@H](Cc2ccccc2)NC(=O)[C@@H](NC(=O)[C@H](N)Cc2ccccc2)CSSC[C@@H](C(=O)N[C@H](CO)[C@@H](C)O)NC1=O [octreotide]
response 25 minutes post-treatment [3]: recovered
response five minutes post-treatment ([3]; 8 second 425 mA laser stimulus to face): no detectable reduction in response
response at 10 minutes post-treatment ([3]; 8 second 425 mA laser stimulus, baseline 42 spikes): 5 spikes
reduction of response at 10 minutes post-treatment ([3]; versus pre-treatment baseline): 88%
total number of action potentials during the stimulation period, 10 minutes after administration ([4]; 0.66 Hz, 2 msec, 3x C-fiber threshold, 506 before treatment): 408
reduction of total number of action potentials, 10 minutes after administration ([4]; versus before treatment): 19.4%

Tyr-Gly-Gly-Phe-Met [met-enkephalin]
analgesic effect, ear withdrawal latency (FIG. 1A) ([5]; laser stimulation of ears): achieved a regional analgesic effect in the head region
systemic analgesic effect, hindpaw withdrawal latency (FIG. 1B) ([5]; laser stimulation of hindpaws): without a systemic analgesic effect at the hindpaw
